Like-named read-outs stand apart in the source and are kept apart here.
Experiments:
NSD3/WHSC1L1 (h) = target: T1, NSD3/WHSC1L1 (h) (Homo sapiens, UniProt Q9BZ95); assay: Epigenetic enzyme assay, Methyltransferases (MTs); type: biochemical; settings: 10 μM; read-out: % Inhibition of Control Values
T1 sequence (Q9BZ95 1-1437): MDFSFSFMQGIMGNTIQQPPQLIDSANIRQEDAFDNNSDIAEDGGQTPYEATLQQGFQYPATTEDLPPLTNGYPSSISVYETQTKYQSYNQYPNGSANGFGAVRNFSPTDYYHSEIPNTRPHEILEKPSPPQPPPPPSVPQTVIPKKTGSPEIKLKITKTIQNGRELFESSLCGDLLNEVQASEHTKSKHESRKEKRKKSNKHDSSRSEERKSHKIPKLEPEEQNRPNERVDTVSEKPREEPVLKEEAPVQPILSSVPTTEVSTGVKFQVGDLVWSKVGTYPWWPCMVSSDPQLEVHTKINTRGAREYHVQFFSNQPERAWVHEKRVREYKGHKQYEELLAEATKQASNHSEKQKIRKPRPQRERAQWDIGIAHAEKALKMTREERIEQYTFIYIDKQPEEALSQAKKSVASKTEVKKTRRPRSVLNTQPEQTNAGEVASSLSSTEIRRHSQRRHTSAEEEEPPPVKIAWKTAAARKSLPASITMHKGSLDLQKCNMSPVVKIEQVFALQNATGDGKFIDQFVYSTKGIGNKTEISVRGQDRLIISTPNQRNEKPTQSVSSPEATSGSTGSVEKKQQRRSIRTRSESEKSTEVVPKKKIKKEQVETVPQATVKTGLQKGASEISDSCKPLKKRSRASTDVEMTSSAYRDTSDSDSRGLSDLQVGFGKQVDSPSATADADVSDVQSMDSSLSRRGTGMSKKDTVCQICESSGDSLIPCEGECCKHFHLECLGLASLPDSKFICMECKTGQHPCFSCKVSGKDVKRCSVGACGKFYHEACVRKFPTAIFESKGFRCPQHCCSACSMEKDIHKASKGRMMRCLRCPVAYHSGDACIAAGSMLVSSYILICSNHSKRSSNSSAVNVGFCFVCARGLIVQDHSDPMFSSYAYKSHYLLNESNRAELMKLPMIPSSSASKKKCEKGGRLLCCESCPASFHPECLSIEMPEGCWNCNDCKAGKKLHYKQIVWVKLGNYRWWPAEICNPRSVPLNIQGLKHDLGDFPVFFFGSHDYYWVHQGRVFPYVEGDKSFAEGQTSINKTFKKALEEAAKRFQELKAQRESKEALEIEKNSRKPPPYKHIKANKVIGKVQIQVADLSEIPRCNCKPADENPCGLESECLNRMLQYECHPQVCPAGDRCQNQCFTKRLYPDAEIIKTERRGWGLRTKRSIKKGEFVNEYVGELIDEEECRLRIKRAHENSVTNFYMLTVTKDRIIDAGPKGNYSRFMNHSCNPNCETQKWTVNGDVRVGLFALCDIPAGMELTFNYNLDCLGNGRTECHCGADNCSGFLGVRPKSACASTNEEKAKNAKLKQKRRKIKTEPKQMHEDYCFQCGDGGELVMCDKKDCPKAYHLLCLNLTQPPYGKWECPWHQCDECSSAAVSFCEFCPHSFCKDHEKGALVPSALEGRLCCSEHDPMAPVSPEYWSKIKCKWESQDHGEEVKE

SK-NEP-1 kidney = assay: OncoPanel cell proliferation assay (10-day); type: cell-based; settings: Homo sapiens; for EC50: read-out: Cell Count EC50; for IC50: read-out: Cell Count IC50
HMG-CoA Reductase = target: T2, HMG-CoA Reductase (Homo sapiens, UniProt P04035); assay: HMG-CoA Reductase; type: biochemical; settings: assay year 2015, read-out: % Control Response
T2 construct: host or cells: E. coli
T2 sequence (P04035 426-888 limits assumed): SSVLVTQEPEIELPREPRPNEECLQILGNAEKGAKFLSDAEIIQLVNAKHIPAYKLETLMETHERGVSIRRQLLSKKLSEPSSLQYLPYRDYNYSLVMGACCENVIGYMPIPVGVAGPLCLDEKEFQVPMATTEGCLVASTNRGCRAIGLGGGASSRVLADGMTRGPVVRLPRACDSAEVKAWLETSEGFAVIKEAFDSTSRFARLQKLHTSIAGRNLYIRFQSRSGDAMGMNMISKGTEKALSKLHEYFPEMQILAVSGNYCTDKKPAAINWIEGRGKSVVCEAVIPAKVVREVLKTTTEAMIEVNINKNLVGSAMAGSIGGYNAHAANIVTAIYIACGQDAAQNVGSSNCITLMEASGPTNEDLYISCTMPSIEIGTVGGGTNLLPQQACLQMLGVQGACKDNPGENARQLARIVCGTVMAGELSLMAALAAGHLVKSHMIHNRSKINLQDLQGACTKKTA
Experimental: The in vitro pharmacological studies were conducted by Eurofins PanLab (Taiwan) using the parameters shown in Table 13 with respect to appropriate literature references.

SETDB1 (h) = SETDB1 (h) (Homo sapiens, UniProt Q15047); assay: Epigenetic enzyme assay, Methyltransferases (MTs); type: biochemical; settings: for inhibition at 10 µM: read-out: % Inhibition of Control Values
PRMT1 (h) = PRMT1 (h) (Homo sapiens, UniProt Q99873); assay: Epigenetic enzyme assay, Methyltransferases (MTs); type: biochemical; settings: read-out: % Inhibition of Control Values
Chain of PRMT1 (h) (Q99873 whole entry, the tested form may be a part): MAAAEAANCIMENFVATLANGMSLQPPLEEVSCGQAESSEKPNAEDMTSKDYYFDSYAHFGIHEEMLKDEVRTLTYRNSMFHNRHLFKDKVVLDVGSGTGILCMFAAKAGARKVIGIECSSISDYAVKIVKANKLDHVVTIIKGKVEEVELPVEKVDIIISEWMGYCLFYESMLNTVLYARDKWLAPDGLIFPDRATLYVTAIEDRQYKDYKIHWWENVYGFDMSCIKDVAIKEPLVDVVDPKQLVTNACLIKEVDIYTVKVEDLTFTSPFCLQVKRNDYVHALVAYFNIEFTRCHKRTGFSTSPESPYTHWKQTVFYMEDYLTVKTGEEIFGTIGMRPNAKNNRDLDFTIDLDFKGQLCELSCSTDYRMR

L3MBTL3 (h) MBT domain = target: T3, L3MBTL3 (h) MBT domain (Homo sapiens, UniProt Q96JM7); assay: Epigenetic binding assay, MBT domain; settings: read-out: % Inhibition of Control Specific Binding
T3 construct: Tudor, MBT and chromo domains gauge the degree of lysine methylation; Eurofins CEREP (France), contract laboratory
T3 sequence (Q96JM7 225-555 limits assumed): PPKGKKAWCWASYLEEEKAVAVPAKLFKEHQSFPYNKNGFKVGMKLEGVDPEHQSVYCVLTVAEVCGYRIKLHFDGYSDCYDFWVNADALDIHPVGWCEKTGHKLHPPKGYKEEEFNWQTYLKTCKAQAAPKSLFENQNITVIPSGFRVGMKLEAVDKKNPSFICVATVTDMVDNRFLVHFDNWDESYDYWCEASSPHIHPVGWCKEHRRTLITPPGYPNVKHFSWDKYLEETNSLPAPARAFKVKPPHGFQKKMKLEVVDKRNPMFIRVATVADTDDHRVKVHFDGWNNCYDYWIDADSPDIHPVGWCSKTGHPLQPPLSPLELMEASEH

[1] = SK-NEP-1, Kidney, read-out: Cell Count GI50

| Structure (SMILES) | inhibition at 10 µM (NSD3/WHSC1L1 (h)) [%] | GI50 (SK-NEP-1 kidney; SK-NEP-1, read-out: GI50) [µM] | EC50 (SK-NEP-1 kidney; SK-NEP-1, Kidney) [µM] | GI50 (SK-NEP-1 kidney; [1]) [µM] | IC50 (SK-NEP-1 kidney; SK-NEP-1, Kidney) [µM] | remaining activity at 10 µM (HMG-CoA Reductase) [%] | inhibition at 10 µM (SETDB1 (h)) [%] | inhibition at 10 µM (PRMT1 (h)) [%] | inhibition at 10 µM (L3MBTL3 (h) MBT domain) [%] | IC50 (SETDB1 (h); read-out: Reference IC50) [µM] |
| --- | --- | --- | --- | --- | --- | --- | --- | --- | --- | --- |
| CC(C)=CCC[C@H](CO)[C@@H]1CC[C@@H](C)c2c1cc(C)c(O)c2O [Compound 1, 7,8,18-trihydroxyserrulat-14-ene] | -17 | 0.00618 | 0.01 | 0.006 | 0.01 | 29 | 53 | 16 | 22 |  |
| CC(C)=CCC[C@@H]1C(O)Oc2c(C)cc(O)c3c2[C@H]1CC[C@H]3C (stereo partly drawn) [Compound 2, 5,18-epoxyserrulat-14-en-8,18-diol] | 11 | 0.0606 | 0.06 | 0.06 | 0.06 | 27 | 43 | 26 | 29 |  |
| Nc1ncnc2c1ncn2[C@@H]1O[C@H](CSCC[C@H](N)C(=O)O)[C@@H](O)[C@H]1O [SAH] |  |  |  |  |  |  |  |  |  | 1.8 |
| CC(C)=CCC[C@@H]1COc2c(C)cc(O)c3c2[C@H]1CC[C@H]3C [Compound 3, 5,18-epoxy-8-hydroxyserrulat-14-ene] | -35 |  |  |  |  | 24 | 52 | -1 | 33 |  |
| CC(C)=CCC[C@H](C)[C@@H]1CC[C@@H](C)c2c1cc(C)c(O)c2O [Compound 4, 7,8-dihydroxyserrulat-14-ene] |  |  | 9.62 | 9.62 | 9.63 |  |  |  |  |  |

From patent US11331299B2, “Medicinal use of serrulatane diterpenes” (The University of Sydney, priority 2016, dated 2022)
